Results published in ChEMBL document CHEMBL1132656, “Design of highly active analogues of the pyrrolo[1,2-a]benzimidazole antitumor agents” (1999).

Key:
[1] = system: Mus musculus; assay: The compound was tested for its ability to get to the tumor site after subcutaneous administration [Score of 2 indicates that there is a percent T/C of 50 or < 50(tumor mass 50% or < the control)]; format: functional
[2] = organism: Mus musculus; assay: The compound was tested for its ability to get to the tumor site after indicates that there is a percent T/C of 50 or < 50(tumor mass 50% or < the control)]; format: functional; design: scale not given here

SMILES: CC(=O)OC1CCn2c1nc1c2C(=O)C(C)=C(N2CC2)C1=O (stereo not drawn)
- Subcutaneous score [1]: 8
- Intraperitonal score [2]: 40

SMILES: CC1=C(N2CC2)C(=O)c2nc3n(c2C1=O)CCC3OC(N)=O (stereo not drawn)
- Subcutaneous score [1]: 6
- Intraperitonal score [2]: 24

SMILES: CC(=O)NC1CCn2c1nc1c2C(=O)C(C)=C(N2CC2)C1=O (stereo not drawn)
- Subcutaneous score [1]: 6
- Intraperitonal score [2]: 46

SMILES: CC(=O)N[C@H]1CCn2c1nc1c2C(=O)C(C)=C(N2CC2)C1=O
- Subcutaneous score [1]: 14
- Intraperitonal score [2]: 38
